Structures can show the parent of a compound that is named as a salt.
Target: T1, human C3a receptor (C3aR) (Homo sapiens, UniProt Q16581)
T1 construct: expressed in transfected cells
T1 sequence (Q16581 1-482): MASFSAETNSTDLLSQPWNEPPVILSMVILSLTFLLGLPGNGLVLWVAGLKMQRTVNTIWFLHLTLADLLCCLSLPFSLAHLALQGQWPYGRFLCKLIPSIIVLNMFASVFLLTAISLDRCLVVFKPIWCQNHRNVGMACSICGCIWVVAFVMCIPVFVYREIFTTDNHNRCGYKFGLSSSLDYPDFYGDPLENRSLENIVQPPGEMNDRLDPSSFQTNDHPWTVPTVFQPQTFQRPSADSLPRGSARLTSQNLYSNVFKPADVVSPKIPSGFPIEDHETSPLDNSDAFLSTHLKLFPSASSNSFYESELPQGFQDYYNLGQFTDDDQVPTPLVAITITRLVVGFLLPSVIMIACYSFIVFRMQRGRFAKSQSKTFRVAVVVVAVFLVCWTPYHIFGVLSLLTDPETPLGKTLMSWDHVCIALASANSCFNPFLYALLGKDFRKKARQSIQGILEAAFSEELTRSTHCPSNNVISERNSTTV
Experiment: Inhibition of human [125I]-C3a binding to human C3a receptor (SPA, membranes of HEK293 cells expressing recombinant C3aR)
Conditions: 0.1 nM [125I]-C3a, 3 hours at room temperature
Method in brief: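 HEK293 C3aR membranes were pre-coupled to WGA SPA beads and incubated 3 h at room temperature with 0.1 nM [125I]-C3a in HEPES pH 7.4 buffer containing 0.25% BSA and 0.2% CHAPS, DMSO ≤1%. Nonspecific binding was defined with 1 μM unlabeled C3a. IC50 came from nonlinear least-squares fitting.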

| Structure (SMILES) | IC50 (Table 6) | further results |
| --- | --- | --- |
| CCOC(=O)N=C(N)NCCC[C@H](NC(=O)c1cccn(C(c2ccccc2)c2ccccc2)c1=O)C(=O)O [Compound 83, (2S)-2-({[1-(diphenylmethyl)-2-oxo-1,2-dihydropyridin-3-yl]carbonyl}amino)-5-[(ethoxycarbonyl)carbamimidamido]pentanoic acid] |  | IC50 (Table 4): 500 to 20000 nM |
| Cc1cc(Cc2ccccc2)c(=O)n(CC(=O)N[C@@H](CCCNC(=N)N)C(=O)O)c1 [Compound 84, (2S)-2-{[(3-benzyl-5-methyl-2-oxopyridin-1(2H)-yl)acetyl]amino}-5-carbamimidamidopentanoic acid•TFA] |  | IC50 (Table 5): 500 to 20000 nM |
| O=C(N[C@@H](Cc1c[nH]cn1)C(=O)O)c1cccn(C(c2ccccc2)c2ccccc2)c1=O [Compound 85, (2S)-2-({[1-(diphenylmethyl)-2-oxo-1,2-dihydropyridin-3-yl]carbonyl}amino)-3-(1H-imidazol-4-yl)propanoic acid•TFA] |  | IC50 (Table 5): 50 to 500 nM |
| N=C(N)NCCCC[C@H](NC(=O)c1cccn(C(c2ccccc2)c2ccccc2)c1=O)C(=O)O [Compound 87, (2S)-6-Carbamimidamido-2-({[1-(diphenylmethyl)-2-oxo-1,2-dihydropyridin-3-yl]carbonyl}amino)hexanoic acid] | < 50 nM |  |
| CC(=N)NCCCC[C@H](NC(=O)c1cccn(C(c2ccccc2)c2ccccc2)c1=O)C(=O)O [Compound 88, (2S)-2-({[1-(diphenylmethyl)-2-oxo-1,2-dihydropyridin-3-yl]carbonyl}amino)-6-(ethanimidoylamino)hexanoic acid•TFA] | 50 to 500 nM |  |
| CC(C)(C)Cn1cccc(C(=O)N[C@@H](CCCNC(=N)N)C(=O)O)c1=O [Compound 90, (2S)-5-carbamimidamido-2-({[1-(2,2-dimethylpropyl)-2-oxo-1,2-dihydropyridin-3-yl]carbonyl}amino)pentanoic acid•TFA] | < 50 nM |  |
| CC(C)/N=C(\NCCC[C@H](NC(=O)c1cccn(C(c2ccccc2)c2ccccc2)c1=O)C(=O)O)NC(C)C [Compound 93, (2S)-5-({Bis[(1-methylethyl)amino]methylidene}amino)-2-({[1-(diphenylmethyl)-2-oxo-1,2-dihydropyridin-3-yl]carbonyl}amino)pentanoic acid] | 50 to 500 nM |  |
| CC(=N)NCC[C@H](NC(=O)c1cccn(C(c2ccccc2)c2ccccc2)c1=O)C(=O)O [Compound 94, (2S)-2-({[1-(diphenylmethyl)-2-oxo-1,2-dihydropyridin-3-yl]carbonyl}amino)-4-(ethanimidoylamino)butanoic acid•TFA] | 50 to 500 nM |  |
| N=C(N)NCCC[C@H](NC(=O)c1ccc(C(c2ccccc2)c2ccccc2)s1)C(=O)O [Compound 97, (2S)-5-Carbamimidamido-2-({[5-(diphenylmethyl)thiophen-2-yl]carbonyl}amino)pentanoic acid] | < 50 nM |  |
| N=C(N)NC(=O)CC[C@H](NC(=O)c1ccc(C(c2ccccc2)c2ccccc2)s1)C(=O)O [Compound 99, (2S)-5-Carbamimidamido-2-({[5-(diphenylmethyl)thiophen-2-yl]carbonyl}amino)-5-oxopentanoicacid] | < 50 nM |  |
| CC(=N)NCCC[C@H](NC(=O)c1cccn(Cc2cccc(Cl)c2)c1=O)C(=O)O [Compound 101, (2S)-2-({[1-(3-chlorobenzyl)-2-oxo-1,2-dihydropyridin-3-yl]carbonyl}amino)-5-(ethanimidoylamino)pentanoic acid•TFA] | 50 to 500 nM |  |
| CC(=N)NCCC[C@H](NC(=O)c1ccc(C(c2ccccc2)c2ccccc2)o1)C(=O)O [Compound 102, (2S)-2-({[5-(Diphenylmethyl)furan-2-yl]carbonyl}amino)-5-(ethanimidoylamino)pentanoic acid] | 50 to 500 nM |  |
| CC(=N)NCCC[C@H](NC(=O)c1ccc(C(c2ccccc2)c2ccccc2)s1)C(=O)O [Compound 103, (2S)-2-({[5-(diphenylmethyl)thiophen-2-yl]carbonyl}amino)-5-(ethanimidoylamino)pentanoic acid•TFA] | 50 to 500 nM |  |
| CC(=N)NCCC[C@H](NC(=O)c1cccn(Cc2ccccc2Cl)c1=O)C(=O)O [Compound 104, (2S)-2-({[1-(2-chlorobenzyl)-2-oxo-1,2-dihydropyridin-3-yl]carbonyl}amino)-5-(ethanimidoylamino)pentanoic acid•TFA] | 500 to 20000 nM |  |
| O=C(N[C@@H](Cc1c[nH]c2ccccc12)C(=O)O)c1cccn(C(c2ccccc2)c2ccccc2)c1=O [Compound 105, (2S)-2-({[1-(Diphenylmethyl)-2-oxo-1,2-dihydropyridin-3-yl]carbonyl}amino)-3-(1H-indol-3-yl)propanoicacid] | 50 to 500 nM |  |
| CC(=N)NCCC[C@H](NC(=O)c1cccn(Cc2cccc(C(F)(F)F)c2)c1=O)C(=O)O [Compound 106, (2S)-5-(ethanimidoylamino)-2-[({2-oxo-1-[3-(trifluoromethyl)benzyl]-1,2-dihydropyridin-3-yl}carbonyl)amino]pentanoic acid•TFA] | 50 to 500 nM |  |

More lines, main results first:

| IC50 (Table 6) | Structure (SMILES) | further results |
| --- | --- | --- |
| < 50 nM | CC(=N)NCCC[C@H](NC(=O)c1cccn(C(c2ccccc2)c2ccccc2)c1=O)C(=O)O [Compound 86, (2S)-2-({[1-(diphenylmethyl)-2-oxo-1,2-dihydropyridin-3-yl]carbonyl}amino)-5-(ethanimidoylamino)pentanoic acid•TFA] |  |
| < 50 nM | N=C(N)NCCC[C@@H](CC(=O)O)NC(=O)c1cccn(C(c2ccccc2)c2ccccc2)c1=O [Compound 89, (3S)-6-Carbamimidamido-3-({[1-(diphenylmethyl)-2-oxo-1,2-dihydropyridin-3-yl]carbonyl}amino)hexanoic acid] |  |
| 50 to 500 nM | CC(=O)NCCC[C@H](NC(=O)c1cccn(C(c2ccccc2)c2ccccc2)c1=O)C(=O)O [Compound 91, (2S)-5-(Acetylamino)-2-({[1-(diphenylmethyl)-2-oxo-1,2-dihydropyridin-3-yl]carbonyl}amino)pentanoic acid] |  |
| < 50 nM | N/C(=N\O)NCCC[C@H](NC(=O)c1cccn(C(c2ccccc2)c2ccccc2)c1=O)C(=O)O [Compound 92, (2S)-2-({[1-(Diphenylmethyl)-2-oxo-1,2-dihydropyridin-3-yl]carbonyl}amino)-5-(hydroxycarb-amimidamido)pentanoicacid] |  |
| < 50 nM | CCN(CC)CCC[C@H](NC(=O)c1cccn(C(c2ccccc2)c2ccccc2)c1=O)C(=O)O [Compound 95, (2S)-5-(Diethylamino)-2-({[1-(diphenylmethyl)-2-oxo-1,2-dihydropyridin-3-yl]carbonyl}amino)pentanoic acid] |  |
| < 50 nM | N=C(CC(=O)O)NCCC[C@H](NC(=O)c1cccn(C(c2ccccc2)c2ccccc2)c1=O)C(=O)O [Compound 96, (2S)-5-[(2-carboxyethanimidoyl)amino]-2-({[1-(diphenylmethyl)-2-oxo-1,2-dihydropyridin-3-yl]carbonyl}amino)pentanoic acid•TFA] |  |
| < 50 nM | N=C(N)NCCC[C@H](NC(=O)c1ccc(C(O)(c2ccccc2)c2ccccc2)s1)C(=O)O [Compound 98, (2S)-5-Carbamimidamido-2-[({5-[hydroxy(diphenyl)methyl]thiophen-2-yl}carbonyl)amino]pentanoic acid] |  |
| 500 to 20000 nM | CC(=N)NCCC[C@H](NC(=O)c1cccn(Cc2ccccc2)c1=O)C(=O)O [Compound 100, (2S)-2-{[(1-benzyl-2-oxo-1,2-dihydropyridin-3-yl)carbonyl]amino}-5-(ethanimidoylamino)pentanoic acid•TFA] |  |
